Test results as given in US20160039825A1 (BIOGEN MA INC., priority 2013, published 2016).

Target: T1, Human ATX protein (Homo sapiens, UniProt Q13822)
T1 construct: made in house
Assay: Autotaxin (ATX) assay, FRET with FS-3 substrate
Format: biochemical
Conditions: for IC50: upper bound bins (no greater than 100, 250 or 500 nM), FS-3 2 μM, ATX 1.0 μg/mL
Text: ATX (Autotaxin) is a 125 KDa glycoprotein with lysophospholipase D (LPLD) activity that generates the bioactive lipid lysophosphatidic acid (LPA) from lysophosphatidylcholine (LPC). The ATX biochemical assay utilizes a FRET (fluorescence resonance energy transfer) technology platform. The fluorescence signal of FRET substrate FS-3 is quenched due to intra-molecular FRET of a fluorophore to a non-fluorescing quencher (Ferguson, C. G., et al., Org Lett. 2006 May 11; 8(10): 2023-2026, which is incorporated by reference in its entirety). ATX catalyzes the hydrolysis of the substrate which separates the dabsyl quencher from the fluorescein reporter, which becomes fluorescent. The reaction is monitored by a SpectraMax M5 (Molecular Devices, Sunnyvale, Calif.) with at excitation wavelength 485 nm and emission wavelength […].
Fatty acid free-BSA (Sigma A8806): 10 mg/mL in H2O, stored at 4° C.
2×ATX assay buffer: 100 mM Tris, 280 mM NaCl, 10 mM KCl, 2 mM CaCl2, 2 mM MgCl2, pH 7.4.
Human ATX protein: expressed and purified in house. Stored at −80° C.
Substrate FS-3 (Echelon, L-2000): 100 μg in 77.74 μL H2O (1 mM stock), stored at −20° C.
384-well flat bottom plates—Corning #3575.
Compound dilution—All compounds were provided at 10 mM in 100% DMSO. In the first well, 2 μL of 10 mM compound was added to 78 μL of DMSO (1:40 dilution). In subsequent wells 3-fold dilution (total 10 dilutions) were performed.
1×ATX assay buffer was made up with a final concentration of 1 mg/mL fatty acid free-BSA using 2×ATX assay buffer, 10 mg/ml fatty acid free-BSA and ddH2O.
ATX protein was diluted with 1×ATX assay buffer to a concentration of 1.32 μg/mL (1.32×). 38 μL was added per well to the assay plate. The final concentration of ATX in the reaction as 1.0 μg/mL.
2 μL per well of compounds was transferred to provide the desired concentration. The plate was centrifuged, then incubated at room temperature for 30 minutes on the shaker.
FS-3 was diluted with 1×ATX assay buffer to a concentration of FS-3 of 10 μM (5×). Then, 10 μL was added per well to the assay plate. The final concentration of FS-3 in the reaction was 2 μM. The plate was centrifuged. The plate was kept shaking at room temperature for 2 hours. Because FS-3 substrate is light sensitive, plates were kept covered and protected from light.
Fluorescence was measured using SpectraMax M5 (excitation at 485 nm/emission at 538 nm, top read).

| Structure (SMILES) | IC50 | inhibition at 10 µM (10 uM compound) |
| --- | --- | --- |
| CCOC(=O)c1nn2c(c1Br)CN(C(=O)OCc1cc(C(F)(F)F)cc(C(F)(F)F)c1)CCC2 [Example 114, 5-(3,5-Bis(trifluoromethyl)benzyl) 2-ethyl 3-bromo-7,8-dihydro-4H-pyrazolo[1,5-a][1,4]diazepine-2,5(6H)-dicarboxylate] | ≤ 100 nM | – |
| Cc1cc2n(n1)CCCN(C(=O)OCc1cc(Cl)cc(Cl)c1)C2 [Example 130, 3,5-Dichlorobenzyl 2-methyl-7,8-dihydro-4H-pyrazolo[1,5-a][1,4]diazepine-5(6H)-carboxylate] | ≤ 500 nM | – |
| CCN1CC2CN(c3cc4n(n3)CCCN(C(=O)OCc3cc(C(F)(F)F)cc(C(F)(F)F)c3)C4)CC2C1 (centres unmarked) [Example 350] | ≤ 100 nM | – |
| O=C(OCc1cc(C(F)(F)F)cc(C(F)(F)F)c1)N1CCn2nc(C(=O)N3C4CCCC3CCC4)cc2C1 [Example 487] | ≤ 100 nM | – |
| O=C(OCc1cc(C(F)(F)F)cc(C(F)(F)F)c1)N1CCCn2nc(C(=O)N3CCN(CCO)CC3)cc2C1 [Example 298, 3,5-bis(trifluoromethyl)benzyl 2-(4-(2-hydroxyethyl)piperazine-1-carbonyl)-7,8-dihydro-4H-pyrazolo[1,5-a][1,4]diazepine-5(6H)-carboxylate] | ≤ 100 nM | – |
| O=C(OCc1cc(Cl)cc(Cl)c1)N1CCCn2nc(C(=O)N3CCC(F)CC3)cc2C1 [Example 20, 3,5-Dichlorobenzyl 2-(4-fluoropiperidine-1-carbonyl)-7,8-dihydro-4H-pyrazolo[1,5-a][1,4]diazepine-5(6H)-carboxylate] | ≤ 100 nM | – |
| CC(c1cc2n(n1)CCN(C(=O)OCc1cc(C(F)(F)F)cc(C(F)(F)F)c1)C2)N1C2CCC1CNC2 (centres unmarked) [Example 428] | ≤ 100 nM | – |
| CC(C)(C)OC(=O)N1CCC(c2cc3n(n2)CCCN(C(=O)OCc2cc(C(F)(F)F)cc(C(F)(F)F)c2)C3)CC1 [Example 374, 3,5-bis(trifluoromethyl)benzyl 2-(1-(tert-butoxycarbonyl)piperidin-4-yl)-7,8-dihydro-4H-pyrazolo[1,5-a][1,4]diazepine-5(6H)-carboxylate] | ≤ 100 nM | – |
| O=C(O)c1nn2c(c1F)CN(C(=O)OCc1cc(C(F)(F)F)cc(C(F)(F)F)c1)CCC2 [Example 507, 5-(((3,5-bis(Trifluoromethyl)benzyl)oxy)carbonyl)-3-fluoro-5,6,7,8-tetrahydro-4H-pyrazolo[1,5-a][1,4]diazepine-2-carboxylic acid] | ≤ 100 nM | – |
| CC(O)c1cc2n(n1)CCCN(C(=O)OCc1cc(C(F)(F)F)cc(C(F)(F)F)c1)C2 (centres unmarked) [Example 146, 3,5-Bis(trifluoromethyl)benzyl 2-(1-hydroxyethyl)-7,8-dihydro-4H-pyrazolo[1,5-a][1,4]diazepine-5(6H)-carboxylate] | ≤ 100 nM | – |
| O=C(O)c1cc2n(n1)CCCN(C(=O)OCc1cc(C(F)(F)F)cc(C(F)(F)F)c1)C2 [Example 8, 5-(((3,5-Bis(trifluoromethyl)benzyl)oxy)carbonyl)-5,6,7,8-tetrahydro-4H-pyrazolo[1,5-a][1,4]diazepine-2-carboxylic acid] | ≤ 100 nM | – |
| O=C(OCc1cc(Cl)cc(C(F)(F)F)c1)N1CCCn2nc(C(=O)N3CCNC4(CC4)C3)cc2C1 [Example 187] | ≤ 100 nM | – |
| O=C(CN1CCOCC1)c1cc2n(n1)CCN(C(=O)OCc1cc(C(F)(F)F)cc(C(F)(F)F)c1)C2 [Example 259] | ≤ 100 nM | – |
| O=C(OCc1cc(C(F)(F)F)cc(C(F)(F)F)c1)N1CCCn2nc(N3CCNC4(CC4)C3)cc2C1 [Example 348] | ≤ 100 nM | – |
| O=C(OCc1cc(C(F)(F)F)cc(C(F)(F)F)c1)N1CCn2nc(Br)cc2C1 [Example 407] | – | 50% |
| O=C(OCc1cc(C(F)(F)F)cc(C(F)(F)F)c1)N1CCCn2nc(N3CCN4CCC[C@@H]4C3)cc2C1 [Example 347] | ≤ 100 nM | – |
| CC(c1cc2n(n1)CCN(C(=O)OCc1cc(C(F)(F)F)cc(C(F)(F)F)c1)C2)N1CCCCC1 (centres unmarked) [Example 458] | ≤ 100 nM | – |
